Measurements as given in ChEMBL document CHEMBL1201862, “PubChem BioAssay data set” (2004).
Calls of active or inactive are those of the source.

Legend:
[1] = molecular target: Melanocortin receptor 4 (Homo sapiens, UniProt P32245); assay: MC4R antagonist potency on cAMP, dose response, cell-based, TR-FRET, biased antagonists (AID 602298); format: functional;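 also: antagonist potency against agonist-stimulated cAMP production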
[2] = nonselective inhibitors of cellular cAMP signaling, dose response, counter-screen for MC4R biased antagonist project, cell-based, TR-FRET cAMP detection (AID 602305); format: functional;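 also: U2OS cells stimulated with forskolin near its EC80 as the cAMP inducer; potency is for inhibition of forskolin-stimulated cAMP signaling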
[3] = molecular target: T1, Microphthalmia-associated transcription factor (Homo sapiens, UniProt O75030); assay: TRPM1 promoter luciferase signal decrease, dose response, MITF inhibitor project, cell-based, SK-MEL-5, cherry-picked, set 3 (AID 493073); format: functional
T1 sequence (O75030 whole entry): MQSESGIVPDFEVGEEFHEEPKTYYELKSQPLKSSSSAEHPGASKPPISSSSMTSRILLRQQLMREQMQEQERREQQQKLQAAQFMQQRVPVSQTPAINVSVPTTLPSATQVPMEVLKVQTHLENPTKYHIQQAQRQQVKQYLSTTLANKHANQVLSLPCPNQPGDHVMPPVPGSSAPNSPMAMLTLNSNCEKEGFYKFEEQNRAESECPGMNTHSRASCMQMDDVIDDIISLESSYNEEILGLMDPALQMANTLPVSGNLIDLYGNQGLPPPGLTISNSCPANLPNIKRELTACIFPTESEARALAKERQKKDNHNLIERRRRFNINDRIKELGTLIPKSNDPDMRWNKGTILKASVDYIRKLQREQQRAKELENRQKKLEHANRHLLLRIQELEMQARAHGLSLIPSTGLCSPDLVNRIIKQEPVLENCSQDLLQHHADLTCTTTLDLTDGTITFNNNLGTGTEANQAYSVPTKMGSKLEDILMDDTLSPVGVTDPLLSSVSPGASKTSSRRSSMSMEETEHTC

[4] = tested on: A-375; assay: A375 melanoma cell viability reduction, dose response, counter-screen for MITF modulator project, cherry-pick samples, set 2 (AID 540335); format: functional, cell-based; conditions: Homo sapiens
[5] = NIH-3T3 fibroblast cytotoxicity, dose response, cytotoxicity control, cell-based, fluorescence, Alamar Blue, secondary assay (AID 2327); format: functional;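 also: NIH-3T3 mouse fibroblasts cultured with fluconazole at 8 µg/mL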
[6] = molecular target: T2, Serine/threonine-protein phosphatase (Candida dubliniensis (strain CD36 / CBS 7987 / NCPF 3949 / NRRLY-17841) (Yeast), UniProt B9W6M3); assay: calcineurin pathway inhibitors in yeast reporter, dose response, S. cerevisiae, CDRE-lacZ, luminescence, secondary (AID 2388); format: functional, cell-based;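 also: yeast reporter cells carrying a calcineurin-responsive lacZ construct stimulated with calcium chloride; luminescent beta-galactosidase reporter signal in whole cells rather than isolated phosphatase activity; potency for inhibition where a drop in reporter signal means calcineurin blockade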
T2 sequence (B9W6M3 whole entry): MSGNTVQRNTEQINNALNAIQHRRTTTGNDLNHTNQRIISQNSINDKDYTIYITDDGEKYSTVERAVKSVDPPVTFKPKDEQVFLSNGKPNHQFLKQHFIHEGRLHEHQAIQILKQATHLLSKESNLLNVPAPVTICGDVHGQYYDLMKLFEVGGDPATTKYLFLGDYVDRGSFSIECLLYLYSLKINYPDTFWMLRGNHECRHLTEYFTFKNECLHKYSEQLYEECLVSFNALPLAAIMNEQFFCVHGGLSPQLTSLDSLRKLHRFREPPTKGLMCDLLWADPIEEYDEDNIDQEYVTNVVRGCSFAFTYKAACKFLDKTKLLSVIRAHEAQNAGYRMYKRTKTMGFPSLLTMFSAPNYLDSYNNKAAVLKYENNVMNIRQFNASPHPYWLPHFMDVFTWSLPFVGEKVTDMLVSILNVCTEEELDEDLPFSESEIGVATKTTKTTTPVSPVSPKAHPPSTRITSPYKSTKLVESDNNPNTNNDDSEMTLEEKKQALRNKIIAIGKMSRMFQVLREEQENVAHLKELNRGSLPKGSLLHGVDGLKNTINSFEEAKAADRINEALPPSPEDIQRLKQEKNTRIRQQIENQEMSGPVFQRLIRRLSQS

[7] = cytotoxicity toward NIH3T3 fibroblasts, dose response, counter-screen, cell-based, ATP luminescence, mouse fibroblasts (AID 2010); format: functional;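 also: cells exposed to compound for about 90 hours before reading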
[8] = molecular target: Beta-galactosidase (Escherichia coli, UniProt Q8VNN2); assay: beta-galactosidase enzyme inhibitors and activators, dose response, artefact control for CCR6 antagonist project, biochemical, E. coli enzyme, set 3 (AID 504712); format: functional
[9] = inhibitors of intracellular T. cruzi replication, confirmation, NIH3T3 host cells, beta-gal luminescence (AID 2044); format: functional, cell-based;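 also: intracellular parasites grown in NIH/3T3 mouse fibroblasts as host cells; luminescent beta-galactosidase reporter signal from transgenic T. cruzi replicating inside host cells; inhibitors lower the luminescence signal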
[10] = molecular target: ATP-dependent molecular chaperone HSP82 (Candida albicans (strain WO-1) (Yeast), UniProt C4YTQ8); assay: loss of DOC-induced GRE-beta-galactosidase reporter signal, dose response, Hsp90 inhibitor project, S. cerevisiae, luminescence (AID 2400); format: functional, cell-based;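 also: beta-galactosidase luminescence from glucocorticoid response element reporter as proxy for Hsp90 function; inhibitor potency where signal loss means Hsp90 inhibition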
[11] = C. albicans growth with fluconazole, confirmation, fluorescence, retest (AID 2467); format: functional, cell-based
[12] = tested on: Vero; assay: cells; format: functional, cell-based; conditions: Chlorocebus sabaeus
[13] = HEp-2 cell cytotoxicity, dose response, cytotoxicity control for RSV inhibitor project, HTS (AID 2410); format: functional; conditions: human respiratory syncytial virus
[14] = tested on: Vero; assay: cells; format: functional; conditions: Chlorocebus sabaeus
[15] = molecular target: T3, Latent membrane protein 1 (Human herpesvirus 4 (strain B95-8), UniProt P03230); assay: TES1-eGFP NF-kB reporter inhibition versus Tet-On dsRED, dose response, selectivity assay for LMP1 NF-kB inhibitor project, imaging, HEK293T, dual-color eGFP/dsRED, cherry-picks (AID 588398); format: functional, cell-based
T3 sequence (P03230 whole entry): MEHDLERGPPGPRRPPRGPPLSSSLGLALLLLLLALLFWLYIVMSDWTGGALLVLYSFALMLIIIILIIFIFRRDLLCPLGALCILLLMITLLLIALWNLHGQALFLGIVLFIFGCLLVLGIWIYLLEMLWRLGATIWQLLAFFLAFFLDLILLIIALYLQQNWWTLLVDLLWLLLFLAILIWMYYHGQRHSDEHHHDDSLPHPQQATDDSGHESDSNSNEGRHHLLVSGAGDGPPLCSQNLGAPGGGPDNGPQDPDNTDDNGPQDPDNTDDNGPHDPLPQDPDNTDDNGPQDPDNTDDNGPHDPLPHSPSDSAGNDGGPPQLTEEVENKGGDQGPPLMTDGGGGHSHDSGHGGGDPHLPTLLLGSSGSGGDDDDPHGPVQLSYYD

[16] = tested on: HEK293; assay: inhibitors of LMP1-driven NF-kB reporter, dose response, cell-based, HEK293, luciferase, cherry-pick (AID 588343); format: functional; conditions: Homo sapiens
[17] = molecular target: Dual specificity protein kinase CLK1 (Homo sapiens, UniProt P49759); assay: CLK1 kinase inhibitors, off-target check, dose response, selectivity assay for Dyrk1A inhibitor project, biochemical, cherry-picked samples (AID 588811)
[18] = molecular target: Dual specificity tyrosine-phosphorylation-regulated kinase 1A (Rattus norvegicus, UniProt Q63470); format: biochemical, Homo sapiens
[19] = molecular target: T4, Mannose-6-phosphate isomerase (Homo sapiens, UniProt P34949); assay: human PMI inhibitors, high substrate, primary screen, biochemical, fluorescence intensity, high mannose 6-phosphate (AID 1220)
T4 sequence (P34949 whole entry): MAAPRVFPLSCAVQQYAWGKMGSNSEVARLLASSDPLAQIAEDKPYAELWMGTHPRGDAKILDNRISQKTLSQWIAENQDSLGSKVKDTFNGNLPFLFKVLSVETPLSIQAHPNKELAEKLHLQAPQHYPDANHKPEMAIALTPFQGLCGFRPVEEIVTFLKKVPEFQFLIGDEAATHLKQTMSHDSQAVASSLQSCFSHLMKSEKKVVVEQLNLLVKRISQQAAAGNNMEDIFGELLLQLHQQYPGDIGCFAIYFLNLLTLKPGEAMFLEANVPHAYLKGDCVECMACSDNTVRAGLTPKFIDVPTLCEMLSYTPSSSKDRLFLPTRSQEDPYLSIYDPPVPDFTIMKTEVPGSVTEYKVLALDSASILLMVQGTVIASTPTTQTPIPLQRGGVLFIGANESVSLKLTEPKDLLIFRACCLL

[20] = molecular target: T5, Nucleotide-binding oligomerization domain-containing protein 1 (Homo sapiens, UniProt Q9Y239); assay: NOD1 signaling inhibitors, SAR follow-up, revised (AID 2333); format: functional
T5 sequence (Q9Y239 whole entry): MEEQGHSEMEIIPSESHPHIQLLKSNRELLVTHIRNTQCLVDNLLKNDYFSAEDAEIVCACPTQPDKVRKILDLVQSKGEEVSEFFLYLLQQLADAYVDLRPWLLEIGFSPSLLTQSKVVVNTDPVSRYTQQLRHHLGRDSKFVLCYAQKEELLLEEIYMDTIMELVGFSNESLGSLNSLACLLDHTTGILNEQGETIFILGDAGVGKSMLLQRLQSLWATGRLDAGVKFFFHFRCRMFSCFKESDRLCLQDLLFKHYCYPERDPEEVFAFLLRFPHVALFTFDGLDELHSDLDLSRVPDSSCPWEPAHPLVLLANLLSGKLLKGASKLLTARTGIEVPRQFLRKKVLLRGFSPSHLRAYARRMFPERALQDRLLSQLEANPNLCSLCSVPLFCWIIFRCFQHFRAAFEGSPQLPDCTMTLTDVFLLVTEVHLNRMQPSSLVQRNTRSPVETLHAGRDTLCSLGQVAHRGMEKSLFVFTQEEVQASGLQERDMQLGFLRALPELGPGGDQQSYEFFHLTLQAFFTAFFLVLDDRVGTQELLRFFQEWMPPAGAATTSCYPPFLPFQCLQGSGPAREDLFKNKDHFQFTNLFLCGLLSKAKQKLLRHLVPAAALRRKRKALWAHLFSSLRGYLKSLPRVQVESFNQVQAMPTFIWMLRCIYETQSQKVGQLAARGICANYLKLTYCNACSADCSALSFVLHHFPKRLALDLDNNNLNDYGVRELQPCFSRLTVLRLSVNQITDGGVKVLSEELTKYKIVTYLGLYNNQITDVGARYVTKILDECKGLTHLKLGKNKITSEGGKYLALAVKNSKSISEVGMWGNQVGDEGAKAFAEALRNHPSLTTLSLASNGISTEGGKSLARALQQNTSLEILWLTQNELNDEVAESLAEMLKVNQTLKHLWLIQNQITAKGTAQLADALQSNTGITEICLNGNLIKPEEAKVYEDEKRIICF

[21] = molecular target: Tumor necrosis factor (Homo sapiens, UniProt P01375); assay: TNFa-triggered NF-kB activation inhibitors, SAR follow-up, cell-based, revised (AID 2337); format: functional
[22] = tested on: HEK293; assay: cells; conditions: Homo sapiens
[23] = molecular target: Nucleotide-binding oligomerization domain-containing protein 2 (Homo sapiens, UniProt Q9HC29); assay: PubChem AID 2334; format: functional
[24] = tested on: BJ; assay: cells; format: functional, cell-based; conditions: Homo sapiens
[25] = cells; format: functional, cell-based
[26] = cytotoxicity toward DRD oncogenic fibroblasts, dose response, cell-based, non-viral oncogenic, luminescence (AID 1934); format: functional; conditions: Homo sapiens
[27] = tested on: INS1; assay: beta cell apoptosis inhibitors, cytokine rescue, dose response, luminescence, retest (AID 449756); format: functional, cell-based; conditions: Rattus norvegicus;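 also: cell death triggered by IL-1 beta plus TNF-alpha plus IFN-gamma mixture; protective hits raise ATP signal compared with cytokine alone wells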
[28] = tested on: BJ; assay: cytotoxicity toward BJ-TERT fibroblasts, dose response, cell-based, RAS-independent, luminescence (AID 1933); format: functional; conditions: Homo sapiens
[29] = cells; format: functional, cell-based; remark: listed apart in the source

Dual specificity protein kinase CLK1, sequence (P49759 whole entry): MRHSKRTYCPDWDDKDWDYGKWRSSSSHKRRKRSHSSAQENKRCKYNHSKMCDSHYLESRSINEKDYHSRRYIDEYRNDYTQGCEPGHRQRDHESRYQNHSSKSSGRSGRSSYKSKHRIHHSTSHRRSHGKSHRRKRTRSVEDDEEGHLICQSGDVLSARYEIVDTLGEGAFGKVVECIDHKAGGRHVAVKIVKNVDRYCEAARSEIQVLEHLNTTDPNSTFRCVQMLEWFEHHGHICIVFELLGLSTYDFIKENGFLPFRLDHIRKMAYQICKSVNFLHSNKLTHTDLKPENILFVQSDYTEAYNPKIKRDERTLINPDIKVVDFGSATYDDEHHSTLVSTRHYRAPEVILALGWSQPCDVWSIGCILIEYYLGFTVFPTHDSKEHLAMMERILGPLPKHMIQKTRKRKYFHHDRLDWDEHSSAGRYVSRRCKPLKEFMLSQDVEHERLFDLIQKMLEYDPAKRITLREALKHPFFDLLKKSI
Melanocortin receptor 4, sequence (P32245 whole entry): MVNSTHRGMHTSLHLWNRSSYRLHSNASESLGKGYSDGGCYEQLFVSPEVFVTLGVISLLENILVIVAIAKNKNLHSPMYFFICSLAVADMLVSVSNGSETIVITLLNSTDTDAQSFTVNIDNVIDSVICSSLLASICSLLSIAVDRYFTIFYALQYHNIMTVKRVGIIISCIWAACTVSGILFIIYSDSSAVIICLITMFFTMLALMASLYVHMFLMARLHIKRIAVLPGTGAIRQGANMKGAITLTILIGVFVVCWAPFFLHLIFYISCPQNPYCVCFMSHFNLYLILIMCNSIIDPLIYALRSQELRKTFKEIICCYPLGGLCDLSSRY
Tumor necrosis factor, sequence (P01375 whole entry): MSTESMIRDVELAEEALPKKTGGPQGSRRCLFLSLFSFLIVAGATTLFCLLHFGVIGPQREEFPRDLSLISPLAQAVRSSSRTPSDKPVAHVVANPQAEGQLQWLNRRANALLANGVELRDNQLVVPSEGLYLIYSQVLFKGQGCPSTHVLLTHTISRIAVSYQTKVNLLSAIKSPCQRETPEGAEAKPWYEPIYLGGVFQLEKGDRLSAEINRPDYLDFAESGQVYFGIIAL
Nucleotide-binding oligomerization domain-containing protein 2, sequence (Q9HC29 whole entry, the tested form may be a part): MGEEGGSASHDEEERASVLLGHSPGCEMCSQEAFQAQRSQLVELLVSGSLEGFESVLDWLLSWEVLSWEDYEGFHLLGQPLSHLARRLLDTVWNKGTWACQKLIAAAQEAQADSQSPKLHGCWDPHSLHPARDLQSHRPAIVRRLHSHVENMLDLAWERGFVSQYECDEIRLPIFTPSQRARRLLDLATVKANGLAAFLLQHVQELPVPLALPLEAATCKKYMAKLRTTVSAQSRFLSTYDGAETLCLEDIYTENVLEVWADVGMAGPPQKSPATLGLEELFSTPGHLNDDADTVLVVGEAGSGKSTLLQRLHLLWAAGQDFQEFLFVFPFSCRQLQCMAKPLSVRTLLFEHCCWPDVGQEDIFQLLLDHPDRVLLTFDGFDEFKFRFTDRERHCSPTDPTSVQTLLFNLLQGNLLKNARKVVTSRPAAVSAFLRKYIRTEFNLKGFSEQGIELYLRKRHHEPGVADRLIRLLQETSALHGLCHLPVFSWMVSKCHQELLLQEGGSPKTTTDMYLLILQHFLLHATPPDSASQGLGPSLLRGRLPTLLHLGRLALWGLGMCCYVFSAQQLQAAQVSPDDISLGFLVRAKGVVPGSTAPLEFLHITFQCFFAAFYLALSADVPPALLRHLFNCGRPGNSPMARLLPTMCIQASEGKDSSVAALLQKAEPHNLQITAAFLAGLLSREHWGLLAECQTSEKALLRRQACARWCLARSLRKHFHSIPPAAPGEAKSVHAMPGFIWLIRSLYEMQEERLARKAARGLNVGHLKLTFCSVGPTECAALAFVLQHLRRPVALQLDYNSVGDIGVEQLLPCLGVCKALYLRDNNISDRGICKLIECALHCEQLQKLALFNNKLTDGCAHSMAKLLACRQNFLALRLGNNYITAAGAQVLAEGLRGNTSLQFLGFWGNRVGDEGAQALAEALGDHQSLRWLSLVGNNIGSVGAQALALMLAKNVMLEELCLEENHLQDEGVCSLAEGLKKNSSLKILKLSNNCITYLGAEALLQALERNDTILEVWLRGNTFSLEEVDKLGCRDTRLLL
ATP-dependent molecular chaperone HSP82, sequence (C4YTQ8 whole entry): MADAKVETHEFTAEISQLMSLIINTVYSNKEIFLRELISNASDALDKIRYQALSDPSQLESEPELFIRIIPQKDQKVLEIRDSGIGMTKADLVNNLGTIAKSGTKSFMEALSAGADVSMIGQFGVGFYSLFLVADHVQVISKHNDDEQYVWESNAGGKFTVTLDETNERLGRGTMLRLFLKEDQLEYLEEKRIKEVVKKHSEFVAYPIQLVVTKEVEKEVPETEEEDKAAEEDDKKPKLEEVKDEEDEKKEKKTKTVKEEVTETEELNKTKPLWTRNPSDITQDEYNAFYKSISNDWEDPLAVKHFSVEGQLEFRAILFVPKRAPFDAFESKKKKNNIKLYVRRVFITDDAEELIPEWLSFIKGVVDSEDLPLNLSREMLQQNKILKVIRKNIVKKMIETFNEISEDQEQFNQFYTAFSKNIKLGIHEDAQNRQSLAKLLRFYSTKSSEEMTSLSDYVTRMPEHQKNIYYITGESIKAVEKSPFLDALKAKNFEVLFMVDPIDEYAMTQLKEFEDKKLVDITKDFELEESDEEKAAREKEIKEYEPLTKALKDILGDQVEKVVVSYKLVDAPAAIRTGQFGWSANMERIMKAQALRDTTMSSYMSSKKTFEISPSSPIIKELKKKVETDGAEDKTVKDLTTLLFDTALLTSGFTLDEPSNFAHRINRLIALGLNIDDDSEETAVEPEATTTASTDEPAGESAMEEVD
Beta-galactosidase, sequence (Q8VNN2 whole entry): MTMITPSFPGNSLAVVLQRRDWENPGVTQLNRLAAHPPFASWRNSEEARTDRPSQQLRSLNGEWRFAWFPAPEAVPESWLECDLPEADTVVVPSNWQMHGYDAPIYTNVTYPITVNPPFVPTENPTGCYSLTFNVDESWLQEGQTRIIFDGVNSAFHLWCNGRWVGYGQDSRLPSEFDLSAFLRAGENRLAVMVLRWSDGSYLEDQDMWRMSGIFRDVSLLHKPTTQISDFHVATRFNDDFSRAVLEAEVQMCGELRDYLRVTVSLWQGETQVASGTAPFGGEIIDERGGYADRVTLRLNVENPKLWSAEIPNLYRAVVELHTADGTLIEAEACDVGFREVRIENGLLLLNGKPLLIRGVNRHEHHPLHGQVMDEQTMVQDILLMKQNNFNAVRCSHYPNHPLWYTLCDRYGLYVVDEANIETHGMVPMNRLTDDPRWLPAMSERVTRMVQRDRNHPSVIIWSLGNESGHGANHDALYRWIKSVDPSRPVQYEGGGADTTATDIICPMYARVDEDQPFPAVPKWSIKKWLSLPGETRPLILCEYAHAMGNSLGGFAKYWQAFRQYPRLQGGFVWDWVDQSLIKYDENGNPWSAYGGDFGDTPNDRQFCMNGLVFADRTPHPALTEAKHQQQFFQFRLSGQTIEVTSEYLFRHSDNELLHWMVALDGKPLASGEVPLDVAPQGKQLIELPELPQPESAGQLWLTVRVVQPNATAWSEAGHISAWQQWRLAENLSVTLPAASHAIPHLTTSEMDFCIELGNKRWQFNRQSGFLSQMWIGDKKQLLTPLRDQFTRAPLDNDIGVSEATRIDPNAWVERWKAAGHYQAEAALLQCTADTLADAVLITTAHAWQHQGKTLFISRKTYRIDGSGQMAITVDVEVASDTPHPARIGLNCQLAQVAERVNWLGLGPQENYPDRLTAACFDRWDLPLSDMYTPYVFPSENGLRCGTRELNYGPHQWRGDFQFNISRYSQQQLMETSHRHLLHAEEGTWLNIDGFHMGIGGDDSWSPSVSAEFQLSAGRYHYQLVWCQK

SMILES: O=C1c2cccc([N+](=O)[O-])c2C(=O)N1c1ccccc1
- IC50 [1]: > 64.6 µM (inactive)
- IC50 [2]: > 64.6 µM (inactive)

SMILES: CCOc1c(Br)cc(CNC2CCCCCCC2)cc1OC
- AC50 [3]: 20.5 µM (active)
- AC50 [4]: 21.9 µM (active)

SMILES: CC(=O)NC(c1ccc(C)cc1)c1cc([N+](=O)[O-])c2cccnc2c1O (centres undefined)
- EC50 [5]: 47.2 µM (active)
- EC50 [6]: > 180 µM (inactive)
- EC50 [7]: < 6 µM (inconclusive)
- IC50 [8]: > 66.6 µM (inactive)
- EC50 [9]: 1.16 µM (active)
- EC50 [10]: 40.3 µM (active)
- EC50 [11]: 0.334 µM (active)

SMILES: Cc1csc(NC(=O)Cc2coc3cc(C)c(C(C)C)cc23)n1
- IC50 [12]: 9.7 µM (active)
- CC50 [13]: 6.08 µM (active)
- CC50 [14]: 23 µM (active)

SMILES: CCOC(=O)CC(NC(=O)C(Cc1ccc(N(CCCl)CCCl)cc1)NC(C)=O)C(=O)OCC (centres undefined)
- AC50 [15]: 16.2 µM (active)
- AC50 [16]: 1.65 µM (active)

SMILES: CCOc1ccc2nc(NC(=O)C3CCCN(S(=O)(=O)c4cccc5nonc45)C3)sc2c1 (centres undefined)
- IC50 [1]: > 64.6 µM (inactive)
- EC50 [7]: > 60 µM (not active)
- EC50 [9]: 2.11 µM (active)
- IC50 [2]: > 64.6 µM (inactive)

SMILES: c1csc(CCNc2ncnc3ccc(-c4ccc5c(c4)OCO5)cc23)c1
- AC50 [17]: < 0.00195 µM (active)

SMILES: O=C(O)COc1ccc(/C=C/c2nc3ccc([N+](=O)[O-])cc3s2)cc1
- AC50 [18]: 0.348 µM (active)
- EC50 [7]: > 60 µM (not active)
- EC50 [9]: > 60 µM (not active)
- AC50 [17]: 0.4 µM (active)

SMILES: COc1ccc(NC(S)=Nc2cccc3cnccc23)cc1
- AC50 [18]: 7.84 µM (active)
- IC50 [19]: > 50 µM (not active)

SMILES: O=C(NC1CCCc2c1cnn2-c1ccccc1F)c1ccnn1-c1ccccc1 (centres undefined)
- IC50 [20]: > 20 µM (inactive)
- IC50 [21]: > 20 µM (inactive)
- IC50 [22]: > 20 µM (inactive)
- IC50 [23]: > 20 µM (inactive)

SMILES: CC(NC(=O)c1ccc([N+](=O)[O-])o1)C1CC2CCC1C2 (centres undefined)
- IC50 [12]: > 25 µM (active)
- CC50 [14]: 19.9 µM (active)

SMILES: c1cncc(CNc2ccnc(-c3ccc4[nH]ncc4c3)n2)c1
- AC50 [17]: 0.385 µM (active)

SMILES: O=C1CSC(=S)N1Cc1ccccc1
- AC50 [15]: 119 µM (active)
- AC50 [16]: 2.11 µM (active)

SMILES: CCN(CC)c1ccc(/C=N/NC(=O)c2cnccn2)c(O)c1
- EC50 [24]: 5.54 µM (active)
- AC50 [15]: 13.2 µM (active)
- EC50 [25]: 40 µM (active)
- EC50 [26]: 2.17 µM (active)
- AC50 [16]: 5.61 µM (active)
- AC50 [27]: 0.55 µM (active)
- EC50 [28]: 5.61 µM (active)
- EC50 [29]: 8.38 µM (active)
